Assay results published in patent US9353089B2, “Compositions and methods for the treatment of malaria” (Saint Louis University, priority 2013, dated 2016).
pIC50: −log10 of the molar value. Read-outs that look alike come from different tables or passages of the source.

Tests used:
[1] = biological target: Plasmepsin-2 (PM-2; Plm II) (Plasmodium falciparum (isolate HB3), UniProt P46925); assay: Plasmepsin-2 enzyme inhibition assay; type: biochemical; conditions: Table 13; read-out: PM-2 IC50
Experimental: Plasmepsin-2 (PM-2; Plm II) and Plasmepsin (PM-4; Plm IV) expression and purification was performed following the published protocols (Istvan E S and Goldberg D E, 2005). The final purified protein was activated by diluting the protein to 0.3 mg/mL in activating buffer (0.1 M citrate pH 4.5, 0.1% Tween-20, 50 mM dithiothreitol) and incubated at room temperature for 40 min, then the activated enzyme was diluted in assay buffer (50 mM sodium acetate pH 4.7, 0.01% Tween-20). The enzymatic inhibition reaction was performed in 384 well plates with a total volume of 20 μl. 10 μl of diluted PM-2 or PM-4 enzyme was added to the 384-well plate except blank wells (blank wells add 10 μL of assay buffer) and 20 nL of serials of diluted 1000× compounds were added to the wells with 520 Echo® Liquid Handling System (Labcyte Inc.). 10 μL PM-2 peptide substrate (AnaSpec, Cat#, 62050) with assay buffer was then added to final concentration of 20 μM to start the reaction. After incubation the reaction at room temperature for 60 min, the fluorescence intensity at Ex/Em=360 nm/535 nm was measured using EnVision multilabel plate reader (Perkin-Elmer). The IC50 values were obtained using Graph Pad Prism 4 and are reported in Tables 8 and 9 below as PM-2 IC50 values.

recombinant human BACE1 = recombinant human BACE1 (Homo sapiens, UniProt P56817); assay: β-Secretase (BACE1) enzyme inhibition FRET assay; type: biochemical; conditions: Table 13; read-out: BACE1 IC50
Sequence of recombinant human BACE1 (P56817 46-501 limits assumed): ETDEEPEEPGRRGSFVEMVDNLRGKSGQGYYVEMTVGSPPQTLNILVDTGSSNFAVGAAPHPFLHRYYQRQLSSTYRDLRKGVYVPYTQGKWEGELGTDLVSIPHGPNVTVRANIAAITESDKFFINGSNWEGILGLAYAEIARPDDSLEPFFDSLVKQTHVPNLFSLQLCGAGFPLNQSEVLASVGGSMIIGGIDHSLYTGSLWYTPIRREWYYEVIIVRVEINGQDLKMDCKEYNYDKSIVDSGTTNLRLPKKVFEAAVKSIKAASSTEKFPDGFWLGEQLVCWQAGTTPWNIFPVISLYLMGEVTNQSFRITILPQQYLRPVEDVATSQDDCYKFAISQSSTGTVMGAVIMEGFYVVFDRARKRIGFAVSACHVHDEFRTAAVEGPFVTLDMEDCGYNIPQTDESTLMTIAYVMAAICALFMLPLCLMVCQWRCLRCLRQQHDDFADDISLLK
Experimental: The enzymatic inhibition activity assays were determined using the fluorescence resonance energy transfer (FRET) assay. The assays were performed in a 384-well plate format. […] CatD and CatE were activated by incubation in assay buffer (0.1 M NaOAc, 0.2 M NaCl, pH 3.5) at room temperature for 30 min. Subsequently, the rhBACE-1 substrate (R&D Systems, catalog# ES004), the Cathepsin D and Cathepsin E substrate (R&D Systems, Catalog # ES001) were added accordingly to final concentration 20 μM to initiate the reaction. After 60 min incubation at room temperature, the time-resolved fluorescence at Ex/Em=360 nm/460 nm was measured on an EnVision multilabel plate reader (Perkin-Elmer). The analytical software, GraphPad Prism 5.0 (GraphPad Software, Inc., USA) was used to generate IC50 values via non-linear regression analysis, which are reported in Tables 8-13 below as BACE1 IC50 values.

[2] = test system: Plasmodium falciparum 3D7 (CQ-sensitive); assay: In vitro antimalarial assay (malaria SYBR Green I-based fluorescence, MSF), 3D7; type: cell-based; conditions: for inhibition of growth at 1 µM: 3D7, 72 h, read-out: 3D7 % inh @ 1 μM
In short: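 Asynchronous P. falciparum 3D7 cultures (0.5% parasitemia, 2% hematocrit) were exposed to serially diluted compounds, in quadruplicate. Growth was then quantified by SYBR Green I fluorescence after adding lysis buffer containing 0.2 μL/mL dye.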

[3] = 3D7, read-out: 3D7 IC50 (μM), Table 13
[4] = 3D7, read-out: Pf3D7 IC50 (μM), Table 10

Sequence of Plasmepsin-2 (PM-2; Plm II) (P46925 125-453 limits assumed): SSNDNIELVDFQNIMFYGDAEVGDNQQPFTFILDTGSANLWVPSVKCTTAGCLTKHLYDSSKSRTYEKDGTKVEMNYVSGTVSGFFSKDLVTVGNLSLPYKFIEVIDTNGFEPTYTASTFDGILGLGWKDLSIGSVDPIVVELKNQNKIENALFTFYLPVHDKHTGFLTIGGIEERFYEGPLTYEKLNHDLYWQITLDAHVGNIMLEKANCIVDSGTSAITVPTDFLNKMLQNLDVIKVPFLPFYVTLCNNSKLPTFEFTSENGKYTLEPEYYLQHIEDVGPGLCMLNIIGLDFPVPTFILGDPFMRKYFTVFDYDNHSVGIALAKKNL

SMILES	pIC50 [1]	pIC50 (recombinant human BACE1)	inhibition of growth at 1 µM [2]	IC50 [2, 3]	IC50 [2, 4]
COc1ccc(C2(c3ccc(OC)cc3)NC(=N)N(Cc3ccccc3C#N)C2=O)cc1 [Example 305, 2-{[2-imino-4,4-bis(4-methoxyphenyl)-5-oxoimidazolidin-1-yl]methyl}benzonitrile]	8.03	5.17	81%		
COc1ccc(C2(c3ccc(OC)cc3)NC(=N)N(C3CC3)C2=O)cc1 [Example 158, 3-cyclopropyl-2-imino-5,5-bis(4-methoxyphenyl)-imidazolidin-4-one]	6.41	< 5.00		4.11 µM	4.11 µM
COc1ccc(C2(c3cccnc3)NC(=N)N(C3CCOCC3)C2=O)cc1 (centres unmarked) [Example 323, 2-imino-5-(4-methoxyphenyl)-3-(oxan-4-yl)-5-(pyridin-3-yl)imidazolidin-4-one]	7.13	~5.00	31%		
COc1ccc(C2(C3CCCCC3)NC(=N)N(C3CCCCC3)C2=O)cc1 (centres unmarked) [Example 447, 3,5-dicyclohexyl-2-imino-5-(4-methoxyphenyl)imidazolidin-4-one]	7.17	4.76		0.494 µM	
N#Cc1cncc(-c2cccc(C3(C4CC4)NC(=N)N(C4CCOCC4)C3=O)c2)c1 (centres unmarked) [Example 488, 5-(3-(4-cyclopropyl-2-imino-5-oxo-1-(tetrahydro-2H-pyran-4-yl)imidazolidin-4-yl)phenyl)nicotinonitrile]	6.35	5.53		0.362 µM	
N=C1NC(c2cccc(-c3cncc(Cl)c3)c2)(C2CC2)C(=O)N1C1CCOCC1 (centres unmarked) [Example 489, 5-(3-(5-chloropyridin-3-yl)phenyl)-5-cyclopropyl-2-imino-3-(tetrahydro-2H-pyran-4-yl)imidazolidin-4-one]	6.68	5.94		0.268 µM	
COc1ccc(C2(C3CCCCC3)NC(=N)N(C3CCOCC3)C2=O)cc1 (centres unmarked) [Example 331, 5-cyclohexyl-2-imino-5-(4-methoxy-phenyl)-3-(oxan-4-yl)imidazolidin-4-one]	7.24	~5.00		0.354 µM	
COc1ccc(C2(c3cncnc3)NC(=N)N(C3CCOCC3)C2=O)cc1 (centres unmarked) [Example 333, 2-imino-5-(4-methoxyphenyl)-3-(oxan-4-yl)-5-(pyrimidin-5-yl)imidazolidin-4-one]	6.19	< 5.00	9%		
COc1ccc(C2(c3ccc(OC)cc3)NC(=N)N(CC3CCN(C(=O)OC(C)(C)C)CC3)C2=O)cc1 [Example 313, tert-butyl 4-{[2-imino-4,4-bis(4-methoxyphenyl)-5-oxoimidazolidin-1-yl]methyl}piperidine-1-carboxylate]	7.96	~5.66	27%		
N=C1NC(c2cccc(-c3cccnc3)c2)(C2CCCCC2)C(=O)N1C1CCOCC1 (centres unmarked) [Example 517, 5-cyclohexyl-2-imino-5-(3-(pyridin-3-yl)phenyl)-3-(tetrahydro-2H-pyran-4-yl)imidazolidin-4-one]	6.90	4.83		0.35 µM	
N#Cc1cncc(-c2cccc(C3(C4CC4)NC(=N)N(C4CCCCC4)C3=O)c2)c1 (centres unmarked) [Example 513, 5-(3-(1-cyclohexyl-4-cyclopropyl-2-imino-5-oxoimidazolidin-4-yl)phenyl)nicotinonitrile]	6.66	5.18		0.4 µM	
COc1ccc(C2(c3ccc(OC)cc3)NC(=N)N(Cc3ncccc3C)C2=O)cc1 [Example 302, 2-imino-5,5-bis(4-methoxyphenyl)-3-[(3-methylpyridin-2-yl)methyl]imidazolidin-4-one]	7.31	< 5.00		1.07 µM	
COc1ccc(C2(c3ccncc3)NC(=N)N(C3CCOCC3)C2=O)cc1 (centres unmarked) [Example 334, 2-imino-5-(4-methoxyphenyl)-3-(oxan-4-yl)-5-(pyridin-4-yl)-imidazolidin-4-one]	7.07	< 5.00	14%		
COc1ccc(C2(c3cnn(C)c3)NC(=N)N(C3CCOCC3)C2=O)cc1 (centres unmarked) [Example 336, 2-imino-5-(4-methoxyphenyl)-5-(1-methyl-1H-pyrazol-4-yl)-3-(oxan-4-yl)-imidazolidin-4-one]	6.40	< 5.00	70%		
COc1ccc(C2(c3ccc(OC)cc3)NC(=N)N(CC3CCN(C)CC3)C2=O)cc1 [Example 308, 2-imino-5,5-bis(4-methoxyphenyl)-3-[(1-methylpiperidin-4-yl)methyl]imidazolidin-4-one]	7.12	< 5.00		0.677 µM	
COc1ccc(C2(c3ccc(OC)cc3)NC(=N)N(C3CCN(C(=O)c4ccccc4)CC3)C2=O)cc1 [Example 311, 3-(1-benzoylpiperidin-4-yl)-2-imino-5,5-bis(4-methoxyphenyl)imidazolidin-4-one]	8.70	~5.17	81%		
COc1ccc(C2(C3CC3)NC(=N)N(C3CCOCC3)C2=O)cc1-c1cccc(C#N)c1 (centres unmarked) [Example 491, 5′-(4-cyclopropyl-2-imino-5-oxo-1-(tetrahydro-2H-pyran-4-yl)imidazolidin-4-yl)-2′-methoxy-[1,1′-biphenyl]-3-carbonitrile]	7.29	5.08		0.47 µM	
N=C1NC(c2cccc(-c3cccnc3)c2)(C2CC2)C(=O)N1C1CCOCC1 (centres unmarked) [Example 487, 5-cyclopropyl-2-imino-5-(3-(pyridin-3-yl)phenyl)-3-(tetrahydro-2H-pyran-4-yl)imidazolidin-4-one]	6.29	5.06		0.248 µM	
COc1ccc(C2(c3ccc(OC)cc3)NC(=N)N(C3CCN(C(=O)CCN(C)C)CC3)C2=O)cc1 [Example 322, 3-{1-[3-(dimethylamino)propanoyl]piperidin-4-yl}-2-imino-5,5-bis(4-methoxyphenyl)imidazolidin-4-one]	7.69	< 5.00	34%		
COc1ccc(C2(C3CC3)NC(=N)N(C3CCOCC3)C2=O)cc1 (centres unmarked) [Example 325, 5-cyclopropyl-2-imino-5-(4-methoxyphenyl)-3-(oxan-4-yl)imidazolidin-4-one]	6.37	< 5.00		0.752 µM	
COc1ccc(C2(c3ccc(OC)cc3)NC(=N)N(C3CCN(C(C)=O)CC3)C2=O)cc1 [Example 310, 3-(1-acetylpiperidin-4-yl)-2-imino-5,5-bis(4-methoxyphenyl)imidazolidin-4-one]	8.23	~5.59	72%		
COc1ccc(C2(c3ccc(OC)cc3)NC(=N)N(CC34CC5CC(CC(C5)C3)C4)C2=O)cc1 [Example 276, 3-(adamantan-1-ylmethyl)-2-imino-5,5-bis(4-methoxyphenyl)-imidazolidin-4-one]	8.70	5.11		0.336 µM	
N=C1NC(c2ccccc2)(c2ccccc2)C(=O)N1C1CCCCC1 [Example 100, 3-cyclohexyl-2-imino-5,5-diphenyl-imidazolidin-4-one]	7.54	< 5.00		3.85 µM	3.85 µM
COc1ccc(C2(C3CCCC3)NC(=N)N(C3CCOCC3)C2=O)cc1 (centres unmarked) [Example 335, 5-cyclopentyl-2-imino-5-(4-methoxy-phenyl)-3-(oxan-4-yl)imidazolidin-4-one]	7.04	< 5.00		0.377 µM	
